From ChEMBL document CHEMBL4483862, “Open-source discovery of chemical leads for next-generation chemoprotective antimalarials” (2018)

Test system: Plasmodium berghei
Assay: Luciferase/luciferin-expressing antifolate-resistant parasites were used to infect a culture of HepG2 cells that were pre-incubated with compounds. Infected hepatocytes emit light due to the luciferase reaction. Assay results are presented as the percent inhibition of light emission compared to control. […]
Format: functional
Details: sporozoite; for IC90: read-out: LUCIFERASE INFECTION ASSAY - IC90

SMILES | IC90 [µM] | also measured
CC(C)(C)c1csc(NC(=O)Nc2ccccc2)n1 | > 12 | IC50 (HEPG2TOX_HILL_SLOPE 1.38, HEPG2TOX_R_SQUARED 0.755, PBLUC_HILL_SLOPE 7.68, PBLUC_R_SQUARED 0.272, read-out: LUCIFERASE INFECTION ASSAY - IC50): 9.6 µM
CCNc1ccc(C(=O)OCC)cc1NC(=O)c1cccc(N(C)C)c1 | 2.65 | IC50 (HEPG2TOX_HILL_SLOPE 1.36, HEPG2TOX_R_SQUARED 0.981, PBLUC_HILL_SLOPE 2.44, PBLUC_R_SQUARED 0.636, read-out: LUCIFERASE INFECTION ASSAY - IC50): 1.08 µM
Clc1ccc(CSc2nncn2-c2ccc3c(c2)OCCO3)cc1 | 3.5 | IC50 (HEPG2TOX_HILL_SLOPE 1.37, HEPG2TOX_R_SQUARED 0.824, PBLUC_HILL_SLOPE 1.99, PBLUC_R_SQUARED 0.536, read-out: LUCIFERASE INFECTION ASSAY - IC50): 1.16 µM
CCOC(=O)c1sc(N)c(C#N)c1CSc1nc(-c2ccccc2)cs1 | 3.69 | IC50 (HEPG2TOX_HILL_SLOPE 1.34, HEPG2TOX_R_SQUARED 0.985, PBLUC_HILL_SLOPE 11.8, PBLUC_R_SQUARED 0.536, read-out: LUCIFERASE INFECTION ASSAY - IC50): 3.06 µM
Cc1noc(C)c1CCC(=O)Nc1nc2cc(C(F)(F)F)ccc2n1Cc1ccco1 | 3.57 | IC50 (HEPG2TOX_HILL_SLOPE 1.36, HEPG2TOX_R_SQUARED 0.789, PBLUC_HILL_SLOPE 10.4, PBLUC_R_SQUARED 0.861, read-out: LUCIFERASE INFECTION ASSAY - IC50): 2.89 µM
Oc1ccc(-c2cnc3cnc(-c4ccc(Cl)cc4Cl)cn23)cc1 | 3.44 | IC50 (HEPG2TOX_HILL_SLOPE 1.37, HEPG2TOX_R_SQUARED 0.776, PBLUC_HILL_SLOPE 1.58, PBLUC_R_SQUARED 0.733, read-out: LUCIFERASE INFECTION ASSAY - IC50): 0.858 µM
O=C(NNC(=O)c1nn(-c2ccccc2)cc1O)c1ccc(-n2cccn2)cc1 | 4.26 | IC50 (HEPG2TOX_HILL_SLOPE 1.34, HEPG2TOX_R_SQUARED 0.874, PBLUC_HILL_SLOPE 11.6, PBLUC_R_SQUARED 0.65, read-out: LUCIFERASE INFECTION ASSAY - IC50): 3.53 µM
COc1cc(-c2nccc3n[nH]c(C4CC4)c23)cc(OC)c1OC | > 10 | IC50 (HEPG2TOX_HILL_SLOPE 1.34, HEPG2TOX_R_SQUARED 0.994, read-out: LUCIFERASE INFECTION ASSAY - IC50): > 10 µM
c1nc(NCc2ccc(CN3CCOCC3)cc2)c2c3c(sc2n1)CCC3 | 1.55 | IC50 (HEPG2TOX_HILL_SLOPE 1.37, HEPG2TOX_R_SQUARED 0.969, PBLUC_HILL_SLOPE 10, PBLUC_R_SQUARED 0.164, read-out: LUCIFERASE INFECTION ASSAY - IC50): 1.25 µM
c1ccc(C2(CNc3ncnc4ccccc34)CCC2)cc1 | 5.71 | IC50 (HEPG2TOX_HILL_SLOPE 1.34, HEPG2TOX_R_SQUARED 0.743, PBLUC_HILL_SLOPE 15.9, 1.42, PBLUC_R_SQUARED 0.162, 0.799, read-out: LUCIFERASE INFECTION ASSAY - IC50): 2.35 µM
COc1ccc(C(C)C)cc1-c1cc(N2CCCC2CO)n2nccc2n1 (configuration not stated) | 6.95 | IC50 (HEPG2TOX_HILL_SLOPE 1.35, HEPG2TOX_R_SQUARED 0.737, PBLUC_HILL_SLOPE 1.83, PBLUC_R_SQUARED 0.512, read-out: LUCIFERASE INFECTION ASSAY - IC50): 2.09 µM
Cn1c(N)c(C(=O)CSc2nc(-c3ccccc3)c(-c3ccccc3)o2)c(=O)n(C)c1=O | > 10 | IC50 (HEPG2TOX_HILL_SLOPE 1.35, HEPG2TOX_R_SQUARED 0.367, PBLUC_HILL_SLOPE 15.8, PBLUC_R_SQUARED 0.143, read-out: LUCIFERASE INFECTION ASSAY - IC50): 9 µM
Cc1ccc(/C(C#N)=C/c2ccc(N(C)C)cc2)cc1 | 5.07 | IC50 (HEPG2TOX_HILL_SLOPE 1.36, HEPG2TOX_R_SQUARED 0.894, PBLUC_HILL_SLOPE 0.698, PBLUC_R_SQUARED 0.911, read-out: LUCIFERASE INFECTION ASSAY - IC50): 0.218 µM
Cn1c(-c2ccccc2)c(C(=O)COc2ccc(-c3ccccc3)cc2)c2ccccc21 | > 10 | IC50 (HEPG2TOX_HILL_SLOPE 1.37, HEPG2TOX_R_SQUARED 0.968, PBLUC_HILL_SLOPE 1.98, PBLUC_R_SQUARED 0.384, read-out: LUCIFERASE INFECTION ASSAY - IC50): 4.87 µM
Cc1cc(NC(=O)c2cc(-c3cccs3)nc3ccccc23)n(-c2ccccn2)n1 | 4.61 | IC50 (HEPG2TOX_HILL_SLOPE 1.34, HEPG2TOX_R_SQUARED 0.908, PBLUC_HILL_SLOPE 3.47, PBLUC_R_SQUARED 0.53, read-out: LUCIFERASE INFECTION ASSAY - IC50): 2.45 µM
Cc1c(C(=O)Nc2ccc(Oc3ccccc3)cc2)cnn1C | > 10 | IC50 (HEPG2TOX_HILL_SLOPE 1.34, HEPG2TOX_R_SQUARED 0.933, PBLUC_HILL_SLOPE 3.41, PBLUC_R_SQUARED 0.294, read-out: LUCIFERASE INFECTION ASSAY - IC50): 7.03 µM

SMILES | IC90 [µM] | also measured
O=C(Nc1nc(-c2ccccn2)cs1)c1ccc(-n2cncn2)cc1 | 1.2 | IC50 (HEPG2TOX_HILL_SLOPE 1.34, HEPG2TOX_R_SQUARED 0.829, PBLUC_HILL_SLOPE 31.3, PBLUC_R_SQUARED 0.545, read-out: LUCIFERASE INFECTION ASSAY - IC50): 1.12 µM
CC(C)c1cccc(-c2nc3ccnc(NCc4ccccn4)c3[nH]2)c1 | > 10 | IC50 (HEPG2TOX_HILL_SLOPE 1.38, HEPG2TOX_R_SQUARED 0.883, PBLUC_HILL_SLOPE 3.5, PBLUC_R_SQUARED 0.343, read-out: LUCIFERASE INFECTION ASSAY - IC50): 6.01 µM
Cc1cc(C)n(CCC(=O)N2CCN(C(c3ccc(F)cc3)c3ccc(F)cc3)CC2)n1 | > 10 | IC50 (HEPG2TOX_HILL_SLOPE 1.37, HEPG2TOX_R_SQUARED 0.338, PBLUC_HILL_SLOPE 18.9, PBLUC_R_SQUARED 0.322, read-out: LUCIFERASE INFECTION ASSAY - IC50): 9.4 µM
CCn1c2ccccc2c2cc(Nc3cc(-c4cc(OC)c(OC)c(OC)c4)ncn3)ccc21 | 1.29 | IC50 (HEPG2TOX_HILL_SLOPE 1.37, HEPG2TOX_R_SQUARED 0.859, PBLUC_HILL_SLOPE 1.98, PBLUC_R_SQUARED 0.713, read-out: LUCIFERASE INFECTION ASSAY - IC50): 0.426 µM
CNc1snc(C)c1C(=O)OCCOc1ccccc1C(C)=O | 7.06 | IC50 (HEPG2TOX_HILL_SLOPE 1.35, HEPG2TOX_R_SQUARED 0.846, PBLUC_HILL_SLOPE 3.65, PBLUC_R_SQUARED 0.5, read-out: LUCIFERASE INFECTION ASSAY - IC50): 3.86 µM
O=C(Nc1nc2ccccc2[nH]1)c1cccnc1Nc1ccccc1F | 3.81 | IC50 (HEPG2TOX_HILL_SLOPE 1.38, HEPG2TOX_R_SQUARED 0.863, PBLUC_HILL_SLOPE 3.37, PBLUC_R_SQUARED 0.741, read-out: LUCIFERASE INFECTION ASSAY - IC50): 1.98 µM
Cc1nc(NC(=O)Cc2nn(C)c(=O)c3ccccc23)sc1-c1ccccn1 | > 10 | IC50 (HEPG2TOX_HILL_SLOPE 1.36, HEPG2TOX_R_SQUARED 0.975, PBLUC_HILL_SLOPE 4.04, PBLUC_R_SQUARED 0.363, read-out: LUCIFERASE INFECTION ASSAY - IC50): 8.34 µM
Cn1ccc2cc(-c3cn4c(-c5ccc(C#N)cc5)cnc4cn3)ccc21 | 0.546 | IC50 (HEPG2TOX_HILL_SLOPE 1.34, HEPG2TOX_R_SQUARED 0.963, PBLUC_HILL_SLOPE 3.57, PBLUC_R_SQUARED 0.761, read-out: LUCIFERASE INFECTION ASSAY - IC50): 0.295 µM
CC(C)CCn1c(=O)c2ccccc2n2c(SCCS(=O)(=O)c3ccc(Cl)cc3)nnc12 | > 10 | IC50 (HEPG2TOX_HILL_SLOPE 1.35, HEPG2TOX_R_SQUARED 0.511, PBLUC_HILL_SLOPE 2.98, PBLUC_R_SQUARED 0.427, read-out: LUCIFERASE INFECTION ASSAY - IC50): 7.28 µM
Cc1ccc(-c2noc(CN3CCN(c4cc(C)nc(N)n4)CC3)n2)cc1 | > 10 | IC50 (HEPG2TOX_HILL_SLOPE 1.35, HEPG2TOX_R_SQUARED 0.853, PBLUC_HILL_SLOPE 1.09, PBLUC_R_SQUARED 0.613, read-out: LUCIFERASE INFECTION ASSAY - IC50): 1.45 µM
COc1cccc(/N=C2\SCC(C)(C)N2C(=O)c2ccccc2OCc2ccccc2C)c1 | > 10 | IC50 (HEPG2TOX_HILL_SLOPE 1.35, HEPG2TOX_R_SQUARED 0.857, read-out: LUCIFERASE INFECTION ASSAY - IC50): > 10 µM
Cn1/c(=N/C(=O)c2ccc(=O)[nH]c2)sc2ccccc21 | > 10 | IC50 (HEPG2TOX_HILL_SLOPE 1.38, HEPG2TOX_R_SQUARED 0.749, PBLUC_HILL_SLOPE 1.3, PBLUC_R_SQUARED 0.494, read-out: LUCIFERASE INFECTION ASSAY - IC50): 2.61 µM
O=C(c1ccc2nc[nH]c2c1)N1CCc2nc(NCc3cccc(Oc4ccccc4)c3)ncc2C1 | > 6.92 | IC50 (HEPG2TOX_HILL_SLOPE 1.36, HEPG2TOX_R_SQUARED 0.938, PBLUC_HILL_SLOPE 1.78, PBLUC_R_SQUARED 0.322, read-out: LUCIFERASE INFECTION ASSAY - IC50): 2.4 µM
O=C1NC(c2c(-c3ccccc3)[nH]c3ccccc23)Nc2ccccc21 (configuration not stated) | 1.21 | IC50 (HEPG2TOX_HILL_SLOPE 1.35, HEPG2TOX_R_SQUARED 0.878, PBLUC_HILL_SLOPE 2.2, PBLUC_R_SQUARED 0.804, read-out: LUCIFERASE INFECTION ASSAY - IC50): 0.447 µM
COc1ccc(-c2cnc(N)c(-c3cccnc3)c2)cc1OC | 9.72 | IC50 (HEPG2TOX_HILL_SLOPE 1.35, HEPG2TOX_R_SQUARED 0.969, PBLUC_HILL_SLOPE 2.37, PBLUC_R_SQUARED 0.379, read-out: LUCIFERASE INFECTION ASSAY - IC50): 3.85 µM
